This experiment concerns the target TrkA (tropomyosin receptor kinase A) (Homo sapiens, UniProt P04629). Put plainly: TR-FRET. The class given is biochemical.

SMILES strings stand for the structures. pIC50: −log10 of the molar value.

Chain of TrkA (tropomyosin receptor kinase A) (P04629 441-796 limits assumed): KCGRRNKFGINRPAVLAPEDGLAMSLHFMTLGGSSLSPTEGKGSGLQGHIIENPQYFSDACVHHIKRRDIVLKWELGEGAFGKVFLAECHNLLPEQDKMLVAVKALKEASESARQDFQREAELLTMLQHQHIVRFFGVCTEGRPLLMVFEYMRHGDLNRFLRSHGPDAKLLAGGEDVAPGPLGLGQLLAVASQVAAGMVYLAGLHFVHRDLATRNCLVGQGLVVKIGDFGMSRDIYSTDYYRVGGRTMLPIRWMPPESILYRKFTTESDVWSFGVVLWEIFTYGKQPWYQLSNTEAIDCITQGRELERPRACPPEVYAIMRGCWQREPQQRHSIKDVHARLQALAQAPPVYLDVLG

In turn, `Nc1ncc(-c2cnn(C3CCNCC3)c2)cc1-c1nc2ccccc2o1` [KRC-108, 3-(benzo[d]oxazol-2-yl)-5-(1-(piperidin-4-yl)-1H-pyrazol-4-yl)pyridin-2-amine] had a pIC50 of 7.36.

Values taken from article PMC9252884 (Biomolecules & Therapeutics, 2022).
